According to patent US20090192226A1, “Materials and Methods for Treatment of Pathological Ocular Vascular Proliferation” (priority 2007, published 2009):
Residues, ends and D or L forms follow the SMILES beside them.

What was measured:
[1] = system: retinal cell culture model; assay: retinal cell culture model, transepithelial resistance (TER); format: cell-based
[2] = system: vascular endothelial growth factor (VEGF); assay: retinal cell culture model, vascular endothelial growth factor (VEGF); format: cell-based
[3] = system: pups undergoing the OIR model; assay: OIR model in pups, oral gavage: pre-retinal neovascularization, vaso-obliteration, vascular density; format: in vivo, mouse; conditions: for reduction in pre-retinal neovascularization relative to vehicle / area of vaso-obliteration: OIR pups; for reduction in pre-retinal neovascularization relative to vehicle: gavaged twice daily P12-P17, H&E cross-sections on P17; for area of vaso-obliteration: gavaged twice daily P12-P17, assessed in P17 pups, vehicle 30.4±7.9%
Excerpt: Retinopathy of prematurity (ROP) is the major cause of blindness in children. Supplementation with arginine or glutamine results in improved clinical outcomes in premature infants. In this study the protective effect of oral administration of Arg-Gln alone and in combination with DHA was examined in pups undergoing the OIR model. METHODS: Nursing dams and pups were returned to normal room air on P12 (postnatal day 12) and gavaged twice daily with: Arg-Gln, DHA, Arg-Gln+DHA or vehicle (P12-P17). Normoxic pups were treated in an identical manner. On P17 the pups were perfused with FITC-labeled dextran. One eye was embedded in paraffin, cross-sectioned and H&E (hematoxylin and eosin) stained for analysis of pre-retinal neovascularization. The retina from the second eye was removed and underwent microscopic analysis for the vessel regrowth, which was evaluated by vessel density.

| Structure (SMILES) | transepithelial resistance (TER) [1] | vascular endothelial growth factor (VEGF) [2] | pre-retinal neovascularization (result in words) ([3]; OIR mouse model, conclusions) | vaso-obliteration (result in words) ([3]; OIR mouse model, conclusions) | intra-retinal vascular density, a measure of vascular regrowth ([3]; OIR pups following hyperoxia exposure, P17, compared to vehicle treated and normoxic pups) | reduction in pre-retinal neovascularization relative to vehicle [3] [%] | area of vaso-obliteration [3] [%] |
| --- | --- | --- | --- | --- | --- | --- | --- |
| N=C(N)NCCC[C@H](N)C(=O)N[C@@H](CCC(N)=O)C(=O)O [Arg-Gln dipeptide, arginyl-glutamine] (H-Arg-Gln-OH) | increased | decreased | dramatically inhibited | reduced | restored | 35±1 | 4.8±1.0 |
| CC/C=C\C/C=C\C/C=C\C/C=C\C/C=C\C/C=C\CCC(=O)O [DHA, decosahexaenoic acid] |  |  |  |  |  | 45±2 | 3.6±1.3 |
